Test results: ChEMBL document CHEMBL3102790, “Synthesis of quercetin glycosides and their melanogenesis stimulatory activity in B16 melanoma cells” (Bioorg Med Chem, 2014)

What was measured:
[1] = Cytotoxicity against mouse B16F10 cells assessed as cell viability at 200 uM by MTT assay; assay type: cell-based, B16-F10; details: read-out: Activity
[2] = molecular target: T1, Tyrosinase (Agaricus bisporus) (UniProt O42713); test: Induction of mushroom tyrosinase activity using L-DOPA as substrate at 50 uM after 30 mins
T1 sequence (whole entry): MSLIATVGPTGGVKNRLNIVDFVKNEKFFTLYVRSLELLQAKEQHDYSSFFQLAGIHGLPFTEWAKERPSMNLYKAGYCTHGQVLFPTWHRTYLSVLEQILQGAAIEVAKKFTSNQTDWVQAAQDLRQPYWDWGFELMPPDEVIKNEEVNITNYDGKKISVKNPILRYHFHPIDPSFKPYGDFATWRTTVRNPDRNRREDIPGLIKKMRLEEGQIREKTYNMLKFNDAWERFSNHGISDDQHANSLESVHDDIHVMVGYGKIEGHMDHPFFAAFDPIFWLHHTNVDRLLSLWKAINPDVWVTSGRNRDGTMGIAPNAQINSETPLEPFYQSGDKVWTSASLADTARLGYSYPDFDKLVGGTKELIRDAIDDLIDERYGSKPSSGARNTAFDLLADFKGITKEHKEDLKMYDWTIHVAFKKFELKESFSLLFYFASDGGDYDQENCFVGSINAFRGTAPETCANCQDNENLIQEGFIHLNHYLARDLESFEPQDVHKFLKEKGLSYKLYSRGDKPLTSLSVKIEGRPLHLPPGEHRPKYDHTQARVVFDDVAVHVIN

[3] = Cytotoxicity against mouse B16F10 cells assessed as cell viability at 10 uM by MTT assay; assay type: cell-based, B16-F10; details: read-out: Activity
B16-F10 [4] = test: Induction of melanogenesis in mouse B16F10 cells assessed as intracellular melanin level after 72 hrs; assay type: functional, cell-based
[5] = molecular target: T1, Tyrosinase (Agaricus bisporus); test: Induction of mushroom tyrosinase activity using L-DOPA as substrate at 100 uM after 30 mins
[6] = Cytotoxicity against mouse B16F10 cells assessed as cell viability at 100 uM by MTT assay; assay type: cell-based, B16-F10; details: read-out: Activity
B16-F10 [7] = test: Induction of melanogenesis in mouse B16F10 cells assessed as intracellular melanin level at 10 uM after 72 hrs; assay type: functional
B16-F10 [8] = test: Induction of melanogenesis in mouse B16F10 cells assessed as intracellular melanin level at 100 uM after 72 hrs; assay type: functional
[9] = molecular target: T1, Tyrosinase (Agaricus bisporus); test: Induction of mushroom tyrosinase activity using L-tyrosine as substrate at 100 uM after 30 mins
B16-F10 [10] = test: Induction of melanogenesis in mouse B16F10 cells assessed as intracellular melanin level at 200 uM after 72 hrs; assay type: functional
[11] = molecular target: T1, Tyrosinase (Agaricus bisporus); test: Induction of mushroom tyrosinase activity using L-DOPA as substrate at 200 uM after 30 mins
[12] = molecular target: T1, Tyrosinase (Agaricus bisporus); test: Induction of mushroom tyrosinase activity using L-tyrosine as substrate at 200 uM after 30 mins
[13] = molecular target: T1, Tyrosinase (Agaricus bisporus); test: Induction of mushroom tyrosinase activity using L-tyrosine as substrate at 50 uM after 30 mins
B16-F10 [14] = test: Induction of melanogenesis in mouse B16F10 cells assessed as intracellular melanin level at 125 uM after 72 hrs; assay type: functional
[15] = Cytotoxicity against mouse B16F10 cells assessed as cell viability at 250 uM by MTT assay; assay type: cell-based, B16-F10; details: read-out: Activity
B16-F10 [16] = test: Induction of melanogenesis in mouse B16F10 cells assessed as intracellular melanin level at 250 uM after 72 hrs; assay type: functional
B16-F10 [17] = test: Induction of melanogenesis in mouse B16F10 cells assessed as intracellular melanin level at 500 uM after 72 hrs; assay type: functional
[18] = Cytotoxicity against mouse B16F10 cells assessed as cell viability at 125 uM by MTT assay; assay type: cell-based, B16-F10; details: read-out: Activity
[19] = Cytotoxicity against mouse B16F10 cells assessed as cell viability at 500 uM by MTT assay; assay type: cell-based, B16-F10; details: read-out: Activity

Row | Activity [2] [%] | Activity [5] [%] | Activity [9] [%] | Activity [11] [%] | Activity [12] [%] | Activity [13] [%] | SMILES | viability at 200 µM [1] [%] | viability at 10 µM [3] [%] | Activity (B16-F10 [4]) | viability at 100 µM [6] [%] | Activity (B16-F10 [7]) [%] | Activity (B16-F10 [8]) [%] | Activity (B16-F10 [10]) [%] | Activity (B16-F10 [14]) [%] | viability at 250 µM [15] [%] | Activity (B16-F10 [16]) [%] | Activity (B16-F10 [17]) [%] | viability at 125 µM [18] [%] | viability at 500 µM [19] [%]
1 | 103 | 107 | 95 | 112 | 82.2 | 97.5 | O=c1c(O[C@@H]2O[C@H](CO)[C@@H](O[C@@H]3O[C@H](CO)[C@@H](O)[C@H](O)[C@H]3O)[C@H](O)[C@H]2O)c(-c2ccc(O)c(O)c2)oc2cc(O)cc(O)c12 | 81.1 | 99.6 | Dose-dependent effect | 93.2 | 102.6 | 126.8 | 176 |  |  |  |  |  | 
2 | 101 | 103 | 95.9 | 101 | 106 | 105 | O=c1c(O[C@@H]2O[C@H](CO)[C@@H](O[C@@H]3O[C@H](CO)[C@@H](O)[C@H](O)[C@H]3O)[C@H](O)[C@H]2O)c(-c2ccc(O[C@@H]3O[C@H](CO)[C@@H](O)[C@H](O)[C@H]3O)c(O)c2)oc2cc(O)cc(O)c12 | 74.8 | 90 | Dose-dependent effect | 86.8 | 137 | 151.5 | 190.5 |  |  |  |  |  | 
3 | 103 | 103 | 85.5 | 106 | 86.7 | 92.8 | O=c1c(O[C@@H]2O[C@H](CO)[C@@H](O)[C@H](O)[C@H]2O)c(-c2ccc(O)c(O)c2)oc2cc(O[C@@H]3O[C@H](CO)[C@@H](O)[C@H](O)[C@H]3O)cc(O)c12 | 114 | 97.7 |  | 78 | 85 | 113.9 | 86.5 |  |  |  |  |  | 
4 | 102 | 99.3 | 98.8 | 99.3 | 94.3 | 101 | O=c1c(O[C@@H]2O[C@H](CO)[C@@H](O)[C@H](O)[C@H]2O)c(-c2ccc(O[C@@H]3O[C@H](CO)[C@@H](O)[C@H](O)[C@H]3O)c(O)c2)oc2cc(O)cc(O)c12 | 77.4 | 107 |  | 104 | 89.7 | 90.4 | 92.6 |  |  |  |  |  | 
5 | 103 | 105 | 85.2 | 109 | 82.4 | 88.9 | O=c1c(O[C@@H]2O[C@H](CO)[C@@H](O)[C@H](O)[C@H]2O)c(-c2ccc(O[C@@H]3O[C@H](CO)[C@@H](O[C@@H]4O[C@H](CO)[C@@H](O)[C@H](O)[C@H]4O)[C@H](O)[C@H]3O)c(O)c2)oc2cc(O)cc(O)c12 | 106 | 97.8 |  | 107 | 96.8 | 90.9 | 96.3 |  |  |  |  |  | 
6 | 107 | 110 | 96.2 | 116 | 104 | 112 | O=c1c(O[C@@H]2O[C@H](CO)[C@@H](O)[C@H](O)[C@H]2O)c(-c2ccc(O)c(O)c2)oc2cc(O)cc(O)c12 [ISOQUERCETIN] | 68.4 | 105 | Dose-dependent effect | 80.9 | 116.3 | 157.1 | 206.9 |  |  |  |  |  | 
7 | 102 | 104 | 102 | 104 | 104 | 103 | O=c1c(O[C@@H]2O[C@H](CO)[C@@H](O[C@@H]3O[C@H](CO)[C@@H](O)[C@H](O)[C@H]3O)[C@H](O)[C@H]2O)c(-c2ccc(O)c(O)c2)oc2cc(O[C@@H]3O[C@H](CO)[C@@H](O)[C@H](O)[C@H]3O)cc(O)c12 | 98.7 | 95.1 |  | 113 | 91.1 | 78.9 | 119 |  |  |  |  |  | 
8 | 101 | 102 | 104 | 103 | 101 | 104 | O=c1c(O[C@@H]2O[C@H](CO)[C@@H](O[C@@H]3O[C@H](CO)[C@@H](O)[C@H](O)[C@H]3O)[C@H](O)[C@H]2O)c(-c2ccc(O)c(O)c2)oc2cc(O[C@@H]3O[C@H](CO)[C@@H](O[C@@H]4O[C@H](CO)[C@@H](O)[C@H](O)[C@H]4O)[C@H](O)[C@H]3O)cc(O)c12 | 95.2 | 105 |  | 93.9 | 80.3 | 97.8 | 102.6 |  |  |  |  |  | 
9 | 108 | 105 | 89 | 110 | 85.6 | 95.2 | O=c1c(O[C@@H]2O[C@H](CO)[C@@H](O)[C@H](O)[C@H]2O)c(-c2ccc(O)c(O)c2)oc2cc(O[C@@H]3O[C@H](CO)[C@@H](O[C@@H]4O[C@H](CO)[C@@H](O)[C@H](O)[C@H]4O)[C@H](O)[C@H]3O)cc(O)c12 | 111 | 95.1 |  | 113 | 91.1 | 78.9 | 83.8 |  |  |  |  |  | 
10 | 107 | 103 | 95 | 108 | 97.6 | 100 | O=c1c(O[C@@H]2O[C@H](CO)[C@@H](O[C@@H]3O[C@H](CO)[C@@H](O)[C@H](O)[C@H]3O)[C@H](O)[C@H]2O)c(-c2ccc(O[C@@H]3O[C@H](CO)[C@@H](O[C@@H]4O[C@H](CO)[C@@H](O)[C@H](O)[C@H]4O)[C@H](O)[C@H]3O)c(O)c2)oc2cc(O)cc(O)c12 | 99.7 | 107 |  | 106 | 79.7 | 84.77 | 99.7 |  |  |  |  |  | 
11 |  |  |  |  |  |  | Cn1c(=O)c2nc[nH]c2n(C)c1=O.O [THEOPHYLLINE] |  |  |  |  |  |  |  | 127.6 | 94.4 | 131.7 | 166.8 | 95.5 | 91.4
